Assay results published in publication PMC9490041, “Determinants of affinity, specificity, and phase separation in a supramodule from Post-synaptic density protein 95” (iScience, 2022).
Where two headings read alike, the source gives them in different places. Ends that are not written are not given here.

Columns and labels:
Assay in all cases: FP displacement (competition) of FITC-15 AA CRIPT by library peptide, IC50 and Ki
[1] = biological target: PSG G335A (PSD-95); details: for IC50: read-out: IC50 (µM), PSG G335A; for Ki: read-out: Ki (µM), PSG G335A
[2] = biological target: PSG G322A (PSD-95); details: for IC50: read-out: IC50 (µM), PSG G322A; for Ki: read-out: Ki (µM), PSG G322A
[3] = biological target: PSG G322A G335A (PSD-95); details: for IC50: read-out: IC50 (µM), PSG G322A G335A; for Ki: read-out: Ki (µM), PSG G322A G335A
[4] = biological target: PSG (PSD-95); details: for IC50: read-out: IC50 (µM), PSG
[5] = FP displacement of FITC-15 AA CRIPT probe by acetylated PSD library peptide
[6] = FP displacement of FITC-15 AA CRIPT probe by acetylated PSD library peptide (P-13 to P0 plus extra N-terminal Y)
[7] = read-out: Ki (µM), PSG, FP displacement of FITC-15 AA CRIPT probe by acetylated PSD library peptide
[8] = FP displacement of FITC-15 AA CRIPT probe by PSD library peptide, protein PSG G335A
[9] = FP displacement of FITC-15 AA CRIPT probe by PSD library peptide, protein PSG G322A
[10] = FP displacement of FITC-15 AA CRIPT probe by PSD library peptide, protein PSG G322A G335A
[11] = FP displacement of FITC-15 AA CRIPT probe by PSD library peptide, protein PSG (wild type)
[12] = read-out: Ki (µM), PSG, FP displacement of FITC-15 AA CRIPT probe by PSD library peptide, protein PSG (wild type)

Compound: CC(=O)N[C@@H](Cc1ccc(O)cc1)C(=O)N[C@@H](CC(C)C)C(=O)N1CCC[C@H]1C(=O)N[C@@H](CC(C)C)C(=O)N[C@@H](CC(=O)O)C(=O)N[C@H](C(=O)N[C@@H](CCC(N)=O)C(=O)N[C@@H](CCC(=O)O)C(=O)NCC(=O)N[C@@H](CC(=O)O)C(=O)N[C@@H](Cc1ccccc1)C(=O)N[C@@H](CCC(N)=O)C(=O)N[C@H](C(=O)N[C@@H](CCC(=O)O)C(=O)N[C@H](C(=O)O)C(C)C)[C@@H](C)O)C(C)C [AGRB3]
- IC50 [1, 5]: 1130 µM
- Ki [1, 5]: 402 µM
- IC50 [2, 5]: 342 µM
- Ki [2, 5]: 148 µM
- IC50 [3, 6]: 534 µM
- Ki [3, 5]: 185 µM
- IC50 [4, 5]: 1080 µM
- Ki [4, 7]: 459 µM

Compound: CSCC[C@H](NC(=O)[C@H](CCC(N)=O)NC(=O)[C@H](CC(=O)O)NC(=O)[C@H](Cc1ccc(O)cc1)NC(=O)[C@H](CC(=O)O)NC(=O)[C@@H]1CCCN1C(=O)[C@H](CO)NC(=O)[C@H](CCCCN)NC(=O)[C@H](CC(C)C)NC(=O)[C@H](Cc1ccc(O)cc1)NC(C)=O)C(=O)N[C@@H](CO)C(=O)N[C@@H](CO)C(=O)N[C@@H](CO)C(=O)N1CCC[C@H]1C(=O)N[C@@H](CS)C(=O)O [CCG5]
- IC50 [1, 5]: 2540 µM
- Ki [1, 5]: 907 µM
- IC50 [2, 5]: 2060 µM
- Ki [2, 5]: 894 µM
- IC50 [3, 6]: 2450 µM
- Ki [3, 5]: 847 µM
- IC50 [4, 5]: 1410 µM
- Ki [4, 7]: 600 µM

Compound: CSCC[C@H](NC(=O)[C@H](CO)NC(=O)[C@H](Cc1ccc(O)cc1)NC(=O)[C@H](CC(C)C)NC(=O)[C@H](Cc1ccc(O)cc1)NC(=O)[C@H](Cc1ccc(O)cc1)NC(=O)[C@H](Cc1ccccc1)NC(=O)[C@H](Cc1ccc(O)cc1)NC(C)=O)C(=O)N[C@H](C(=O)N[C@@H](Cc1ccc(O)cc1)C(=O)N[C@H](C(=O)N[C@@H](CC(C)C)C(=O)N[C@H](C(=O)N[C@@H](CO)C(=O)N[C@@H](Cc1ccccc1)C(=O)O)C(C)C)[C@@H](C)O)C(C)C [CNIH2]
- IC50 [1, 5]: 516 µM
- Ki [1, 5]: 184 µM
- IC50 [2, 5]: 2260 µM
- Ki [2, 5]: 982 µM
- IC50 [3, 6]: 727 µM
- Ki [3, 5]: 252 µM
- IC50 [4, 5]: 2080 µM
- Ki [4, 7]: 888 µM

Compound: CC(=O)N[C@@H](Cc1ccc(O)cc1)C(=O)N[C@@H](CCCCN)C(=O)N[C@@H](CCCCN)C(=O)N[C@H](C(=O)N[C@@H](CC(C)C)C(=O)N[C@@H](CC(=O)O)C(=O)N[C@H](C(=O)N[C@@H](CCCCN)C(=O)N[C@@H](CC(N)=O)C(=O)N[C@@H](Cc1ccc(O)cc1)C(=O)N[C@@H](CCCCN)C(=O)N[C@@H](CCC(N)=O)C(=O)N[C@H](C(=O)N[C@@H](CO)C(=O)N[C@H](C(=O)O)C(C)C)[C@@H](C)O)[C@@H](C)O)C(C)C [CRIPT]
- IC50 [1, 8]: 2 µM
- IC50 [2, 9]: 1.49 µM
- Ki [2, 9]: 0.496 µM
- IC50 [3, 10]: 0.868 µM
- Ki ([4]; FP displacement of 5 nM FITC-15 AA CRIPT by non-labeled acetylated peptide, room temperature, Ki from IC50, technical triplicates, PSG): < 75 µM
- IC50 [4, 11]: 6 µM
- Ki [4, 12]: 2.44 µM

Compound: CC[C@H](C)[C@H](NC(=O)[C@H](Cc1ccc(O)cc1)NC(=O)[C@H](CO)NC(=O)CNC(=O)[C@H](CO)NC(=O)[C@H](CCC(N)=O)NC(=O)[C@H](Cc1ccc(O)cc1)NC(C)=O)C(=O)N[C@@H](Cc1c[nH]c2ccccc12)C(=O)N[C@H](C(=O)N1CCC[C@H]1C(=O)N[C@@H](C)C(=O)N[C@@H](CCCCN)C(=O)N[C@@H](CCC(=O)O)C(=O)N[C@@H](CCCCN)C(=O)N[C@@H](CC(C)C)C(=O)O)C(C)C [DLG1]
- IC50 [1, 5]: 1310 µM
- Ki [1, 5]: 466 µM
- IC50 [2, 5]: 1600 µM
- Ki [2, 5]: 692 µM
- IC50 [3, 6]: 1590 µM
- Ki [3, 5]: 550 µM
- IC50 [4, 5]: 1470 µM
- Ki [4, 7]: 628 µM

Compound: CC(=O)N[C@@H](Cc1ccc(O)cc1)C(=O)N[C@@H](CC(=O)O)C(=O)N[C@@H](CO)C(=O)N[C@H](C(=O)N[C@@H](CCC(=O)O)C(=O)N[C@@H](CCC(N)=O)C(=O)N[C@@H](CO)C(=O)N[C@@H](CC(=O)O)C(=O)N[C@H](C(=O)N[C@@H](CCCNC(=N)N)C(=O)N[C@@H](Cc1ccccc1)C(=O)N[C@@H](CO)C(=O)N[C@@H](CO)C(=O)N[C@@H](C)C(=O)N[C@H](C(=O)O)C(C)C)C(C)C)[C@@H](C)O [GPER1]
- IC50 [1, 8]: 499 µM
- Ki [1, 8]: 178 µM
- IC50 [2, 9]: 190 µM
- Ki [2, 9]: 82 µM
- IC50 [3, 10]: 238 µM
- Ki [3, 10]: 82 µM
- IC50 [4, 11]: 865 µM
- Ki [4, 12]: 456 µM

Compound: CC(=O)N[C@@H](Cc1ccc(O)cc1)C(=O)N[C@H](C(=O)N[C@@H](CCC(=O)O)C(=O)N[C@@H](CO)C(=O)N[C@@H](CCCCN)C(=O)N[C@@H](CCCCN)C(=O)N[C@@H](Cc1c[nH]cn1)C(=O)NCC(=O)N[C@@H](CCCNC(=N)N)C(=O)N[C@@H](Cc1c[nH]c2ccccc12)C(=O)N[C@@H](CCCCN)C(=O)N[C@@H](CC(C)C)C(=O)N[C@@H](Cc1c[nH]c2ccccc12)C(=O)N[C@@H](Cc1ccccc1)C(=O)N[C@@H](CC(C)C)C(=O)O)[C@@H](C)O [INSY2]
- IC50 [1, 5]: 1230 µM
- Ki [1, 5]: 438 µM
- IC50 [2, 5]: 83 µM
- Ki [2, 5]: 36 µM
- IC50 [3, 6]: 980 µM
- Ki [3, 5]: 339 µM
- IC50 [4, 5]: 380 µM
- Ki [4, 7]: 161 µM

Compound: CC[C@H](C)[C@H](NC(=O)[C@H](CC(N)=O)NC(=O)CNC(=O)CNC(=O)[C@H](CO)NC(=O)[C@H](Cc1ccc(O)cc1)NC(=O)[C@H](CCC(=O)O)NC(=O)[C@@H]1CCCN1C(=O)[C@H](Cc1ccc(O)cc1)NC(C)=O)C(=O)N[C@H](C(=O)N[C@@H](CCCNC(=N)N)C(=O)N[C@H](C(=O)N[C@@H](CO)C(=O)N[C@@H](C)C(=O)N[C@@H](CC(C)C)C(=O)O)C(C)C)C(C)C [KCND2]
- IC50 [1, 8]: 237 µM
- Ki [1, 8]: 84 µM
- IC50 [2, 9]: 564 µM
- Ki [2, 9]: 244 µM
- IC50 [3, 10]: 343 µM
- Ki [3, 10]: 119 µM
- IC50 [4, 11]: 1500 µM
- Ki [4, 12]: 793 µM

Compound: CC[C@H](C)[C@H](NC(=O)[C@H](CCC(=O)O)NC(=O)[C@@H](NC(=O)[C@H](CO)NC(=O)[C@H](CCC(=O)O)NC(=O)[C@@H](NC(=O)[C@H](CCCNC(=N)N)NC(=O)[C@H](CCC(=O)O)NC(=O)[C@H](CC(C)C)NC(=O)[C@H](CCCNC(=N)N)NC(=O)[C@H](CO)NC(=O)[C@@H]1CCCN1C(=O)[C@@H](NC(=O)[C@H](Cc1c[nH]c2ccccc12)NC(=O)[C@H](Cc1ccc(O)cc1)NC(C)=O)[C@@H](C)O)[C@@H](C)CC)[C@@H](C)O)C(=O)O [LZTS3]
- IC50 [1, 8]: 630 µM
- Ki [1, 8]: 224 µM
- IC50 [2, 9]: 462 µM
- Ki [2, 9]: 200 µM
- IC50 [3, 10]: 662 µM
- Ki [3, 10]: 229 µM
- IC50 [4, 11]: 2120 µM
- Ki [4, 12]: 902 µM

Compound: CC(=O)N[C@@H](Cc1ccc(O)cc1)C(=O)N[C@@H](Cc1c[nH]cn1)C(=O)N[C@@H](Cc1c[nH]cn1)C(=O)N[C@H](C(=O)N[C@@H](CO)C(=O)N[C@@H](Cc1ccc(O)cc1)C(=O)N[C@H](C(=O)N[C@@H](C)C(=O)N[C@@H](CO)C(=O)N[C@@H](CCCCN)C(=O)N[C@H](C(=O)N[C@@H](CCC(=O)O)C(=O)N[C@H](C(=O)N[C@H](C(=O)N[C@H](C(=O)O)C(C)C)[C@@H](C)O)C(C)C)[C@@H](C)O)[C@@H](C)O)[C@@H](C)O [SHSA6]
- IC50 [2, 9]: 2000 µM
- Ki [2, 9]: 867 µM
- IC50 [3, 10]: 1170 µM
- Ki [3, 10]: 405 µM
- IC50 [4, 11]: 1220 µM
- Ki [4, 12]: 518 µM

Compound: CC[C@H](C)[C@H](NC(=O)[C@H](CC(C)C)NC(=O)[C@H](C)NC(=O)[C@@H](NC(=O)[C@H](C)NC(=O)[C@H](Cc1ccc(O)cc1)NC(C)=O)C(C)C)C(=O)N[C@@H](C)C(=O)N[C@@H](Cc1ccc(O)cc1)C(=O)N[C@@H](CC(C)C)C(=O)N[C@@H](CO)C(=O)N[C@@H](CCCCN)C(=O)N[C@@H](CC(N)=O)C(=O)N[C@@H](CC(N)=O)C(=O)N[C@@H](Cc1c[nH]cn1)C(=O)N[C@@H](CC(C)C)C(=O)O [SYNG1]
- IC50 [1, 5]: 663 µM
- Ki [1, 5]: 236 µM
- IC50 [3, 6]: 733 µM
- Ki [3, 5]: 254 µM
- IC50 [4, 5]: 1440 µM
- Ki [4, 7]: 613 µM

Compound: Ac-YDKPLSKKHAHSVNF [PDLI5]
- IC50 [1, 5]: 2060 µM
- Ki [1, 5]: 736 µM
- IC50 [3, 6]: 973 µM
- Ki [3, 5]: 337 µM
- IC50 [4, 5]: 2060 µM
- Ki [4, 7]: 879 µM

Compound: Ac-YSRQHSKLLDFDDVL [NSMF]
- IC50 [4, 5]: 1390 µM
- Ki [4, 7]: 592 µM
